Test results reported in PMC5218480 (PLoS ONE, 2017).

Test system: MV-4-11 cells
Test: Gene expression microarray analysis (Affymetrix PrimeView) and GSEA
Type: cell-based, human
Parameters: RFU PODN (11730768_x_at) / Fold change /veh PODN (11730768_x_at) / RFU LINC00158 (11744669_a_at) / Fold change /veh LINC00158 (11744669_a_at) / RFU DUSP10 (11751237_a_at) / Fold change /veh DUSP10 (11751237_a_at) / RFU ID3 (11757404_x_at) / Fold change /veh ID3 (11757404_x_at) / RFU PLEKHG5 (11737974_s_at) / Fold change /veh PLEKHG5 (11737974_s_at) / RFU LRRC4B (11730491_at) / Fold change /veh LRRC4B (11730491_at) / RFU GIMAP4 (11747438_a_at) / Fold change /veh GIMAP4 (11747438_a_at) / RFU KRT8 (11758183_x_at) / Fold change /veh KRT8 (11758183_x_at) / RFU CNN1 (11734310_a_at) / Fold change /veh CNN1 (11734310_a_at) / RFU VPS37D (11726825_at) / Fold change /veh VPS37D (11726825_at) / RFU C10orf10 (11716522_x_at) / Fold change /veh C10orf10 (11716522_x_at) / RFU KIR2DL2 /// KIR2DL4 /// KIR2DL5A /// KIR2DL5B /// KIR2DS1 /// KIR2DS2 /// KIR2DS3 /// KIR2DS4 /// KIR3DL3 /// KIR3DL3 /// KIR3DS1 (11738374_at) / Fold change /veh KIR2DL2 /// KIR2DL4 /// KIR2DL5A /// KIR2DL5B /// KIR2DS1 /// KIR2DS2 /// KIR2DS3 /// KIR2DS4 /// KIR3DL3 /// KIR3DL3 /// KIR3DS1 (11738374_at) / RFU C1QL1 (11718748_at) / Fold change /veh C1QL1 (11718748_at) / RFU TMPRSS4 (11747572_a_at) / Fold change /veh TMPRSS4 (11747572_a_at) / RFU HAMP (11756126_x_at) / Fold change /veh HAMP (11756126_x_at) / RFU RNFT2 (11725882_a_at) / Fold change /veh RNFT2 (11725882_a_at) / RFU NR4A2 (11747474_a_at) / Fold change /veh NR4A2 (11747474_a_at) / RFU ABCC12 (11746883_a_at) / Fold change /veh ABCC12 (11746883_a_at) / RFU TMEM136 (11760407_x_at) / Fold change /veh TMEM136 (11760407_x_at) / RFU CLDN22 /// WWC2 (11732394_at) / Fold change /veh CLDN22 /// WWC2 (11732394_at) / RFU HLA-DPB1 (11760878_x_at) / Fold change /veh HLA-DPB1 (11760878_x_at) / RFU SPINT1 (11716480_a_at) / Fold change /veh SPINT1 (11716480_a_at) / RFU GAP43 (11754022_s_at) / Fold change /veh GAP43 (11754022_s_at) / RFU A4GNT (11735810_at) / Fold change /veh A4GNT (11735810_at) / RFU PRB3 (11715151_x_at) / Fold change /veh PRB3 (11715151_x_at) / RFU TUBB4B (11761932_at) / Fold change /veh TUBB4B (11761932_at) / RFU CAPN14 (11732068_a_at) / Fold change /veh CAPN14 (11732068_a_at) / RFU TMCC2 (11721928_a_at) / Fold change /veh TMCC2 (11721928_a_at) / RFU IRGQ (11745062_a_at) / Fold change /veh IRGQ (11745062_a_at) / RFU FAM174B (11720279_a_at) / Fold change /veh FAM174B (11720279_a_at) / RFU TMPRSS4 (11748680_a_at) / Fold change /veh TMPRSS4 (11748680_a_at) / RFU FAM212B (11763350_a_at) / Fold change /veh FAM212B (11763350_a_at) / RFU PLEKHG5 (11743358_a_at) / Fold change /veh PLEKHG5 (11743358_a_at) / RFU ZSCAN30 (11745921_a_at) / Fold change /veh ZSCAN30 (11745921_a_at) / RFU CMKLR1 (11741424_a_at) / Fold change /veh CMKLR1 (11741424_a_at) / RFU LOC101060620 /// MAPK8IP1 (11723275_at) / Fold change /veh LOC101060620 /// MAPK8IP1 (11723275_at) / RFU SPTSSB (11747773_x_at) / Fold change /veh SPTSSB (11747773_x_at) / RFU PRSS12 (11739890_at) / Fold change /veh PRSS12 (11739890_at) / RFU BIN1 (11741810_x_at) / Fold change /veh BIN1 (11741810_x_at) / RFU WNT11 (11732464_a_at) / Fold change /veh WNT11 (11732464_a_at) / RFU C10orf10 (11716521_a_at) / Fold change /veh C10orf10 (11716521_a_at) / RFU C5orf56 (11738089_at) / Fold change /veh C5orf56 (11738089_at) / RFU CYB561 (11721691_x_at) / Fold change /veh CYB561 (11721691_x_at) / RFU ANKRD19P (11752326_a_at) / Fold change /veh ANKRD19P (11752326_a_at) / RFU OR2T12 /// OR2T33 /// OR2T8 (11738714_s_at) / Fold change /veh OR2T12 /// OR2T33 /// OR2T8 (11738714_s_at) / RFU VCAN (11748164_a_at) / Fold change /veh VCAN (11748164_a_at) / RFU JSRP1 (11732532_at) / Fold change /veh JSRP1 (11732532_at) / RFU KRTAP10-11 (11738290_x_at) / Fold change /veh KRTAP10-11 (11738290_x_at) / RFU MYO3A (11730013_a_at) / Fold change /veh MYO3A (11730013_a_at) / RFU EBF3 (11725865_a_at) / Fold change /veh EBF3 (11725865_a_at) / RFU CAMK2N1 (11719241_x_at) / Fold change /veh CAMK2N1 (11719241_x_at) / RFU C5orf56 (11738088_a_at) / Fold change /veh C5orf56 (11738088_a_at) / RFU OLFML3 (11715873_a_at) / Fold change /veh OLFML3 (11715873_a_at) / RFU LOC100653217 /// NTM (11731650_a_at) / Fold change /veh LOC100653217 /// NTM (11731650_a_at) / RFU MAPK11 (11762145_a_at) / Fold change /veh MAPK11 (11762145_a_at) / RFU FIZ1 (11724087_x_at) / Fold change /veh FIZ1 (11724087_x_at) / RFU OASL (11726364_x_at) / Fold change /veh OASL (11726364_x_at) / RFU SOX15 (11748057_x_at) / Fold change /veh SOX15 (11748057_x_at) / RFU CD79A (11719716_a_at) / Fold change /veh CD79A (11719716_a_at) / RFU HIST1H1D (11736915_at) / Fold change /veh HIST1H1D (11736915_at) / RFU CASKIN2 (11723855_a_at) / Fold change /veh CASKIN2 (11723855_a_at) / RFU LOC730098 (11760151_x_at) / Fold change /veh LOC730098 (11760151_x_at) / RFU OR4N2 (11742367_at) / Fold change /veh OR4N2 (11742367_at) / RFU PRRT2 (11749266_a_at) / Fold change /veh PRRT2 (11749266_a_at) / RFU SNX32 (11753110_a_at) / Fold change /veh SNX32 (11753110_a_at) / RFU CDHR5 (11726645_a_at) / Fold change /veh CDHR5 (11726645_a_at) / RFU RCAN1 (11760418_a_at) / Fold change /veh RCAN1 (11760418_a_at) / RFU FAM167A (11723789_a_at) / Fold change /veh FAM167A (11723789_a_at) / RFU FAM26E (11764081_at) / Fold change /veh FAM26E (11764081_at) / RFU ISYNA1 (11749810_s_at) / Fold change /veh ISYNA1 (11749810_s_at) / RFU ACY1 (11761880_at) / Fold change /veh ACY1 (11761880_at) / RFU 11764098_at / Fold change /veh 11764098_at / RFU SAMD14 (11745864_x_at) / Fold change /veh SAMD14 (11745864_x_at) / RFU NPB (11741838_a_at) / Fold change /veh NPB (11741838_a_at) / RFU TMPRSS6 (11731388_a_at) / Fold change /veh TMPRSS6 (11731388_a_at) / RFU KRTAP10-2 (11738614_at) / Fold change /veh KRTAP10-2 (11738614_at) / RFU ARHGAP8 /// PRR5-ARHGAP8 (11727945_x_at) / Fold change /veh ARHGAP8 /// PRR5-ARHGAP8 (11727945_x_at) / RFU KRTAP5-7 /// NADSYN1 (11734609_at) / Fold change /veh KRTAP5-7 /// NADSYN1 (11734609_at) / RFU RASL12 (11751679_a_at) / Fold change /veh RASL12 (11751679_a_at) / RFU CDKN2B (11736163_a_at) / Fold change /veh CDKN2B (11736163_a_at) / RFU PRF1 (11729649_at) / Fold change /veh PRF1 (11729649_at) / RFU, ZNF638 /// ZNF638-IT1 / Fold change vs veh, ZNF638 /// ZNF638-IT1 / RFU, PANK3 / Fold change vs veh, PANK3 / RFU, SH3YL1 / Fold change vs veh, SH3YL1 / RFU, ZEB2 / Fold change vs veh, ZEB2 / RFU, NRIP1 / Fold change vs veh, NRIP1 / RFU, PTTG1IP / Fold change vs veh, PTTG1IP / RFU, CAPN2 / Fold change vs veh, CAPN2 / RFU, MED14 / Fold change vs veh, MED14 / RFU, SNORA58 / Fold change vs veh, SNORA58 / RFU, C1orf63 / Fold change vs veh, C1orf63 / RFU, LRRFIP1 / Fold change vs veh, LRRFIP1 / RFU, NDUFAF7 / Fold change vs veh, NDUFAF7 / RFU, SLC12A2 / Fold change vs veh, SLC12A2 / RFU, IBTK / Fold change vs veh, IBTK / RFU, ESF1 / Fold change vs veh, ESF1 / Fold change vs veh, TMEM50B / RFU, TAOK1 / Fold change vs veh, TAOK1 / RFU, ACBD3 / Fold change vs veh, ACBD3 / RFU, TMA16 / Fold change vs veh, TMA16 / RFU, RWDD3 / Fold change vs veh, RWDD3 / RFU, BCAT1 / Fold change vs veh, BCAT1 / RFU, EDEM3 / Fold change vs veh, EDEM3 / RFU, TMEM33 / Fold change vs veh, TMEM33 / RFU, WDR75 / Fold change vs veh, WDR75 / RFU, AHCTF1 / Fold change vs veh, AHCTF1 / RFU, TFRC / Fold change vs veh, TFRC / RFU, ZDHHC17 / Fold change vs veh, ZDHHC17 / RFU, NOM1 / Fold change vs veh, NOM1 / RFU, ARL8B / Fold change vs veh, ARL8B / RFU, ZBTB11 / Fold change vs veh, ZBTB11 / RFU, TAMM41 / Fold change vs veh, TAMM41 / RFU, KIAA1704 /// LOC100996395 / Fold change vs veh, KIAA1704 /// LOC100996395 / RFU, ING1 / Fold change vs veh, ING1 / RFU, TRMT61B / Fold change vs veh, TRMT61B / RFU, FUBP3 / Fold change vs veh, FUBP3 / RFU, TP53 / Fold change vs veh, TP53 / RFU, TNKS2 / Fold change vs veh, TNKS2 / RFU, ZFP14 / Fold change vs veh, ZFP14 / RFU, ACTR2 / Fold change vs veh, ACTR2 / RFU, PPP3R1 / Fold change vs veh, PPP3R1 / RFU, PIK3R1 / Fold change vs veh, PIK3R1 / RFU, HNRNPA1 / Fold change vs veh, HNRNPA1 / RFU, RNF170 / Fold change vs veh, RNF170 / RFU, ZNF28 / Fold change vs veh, ZNF28 / RFU, RNGTT / Fold change vs veh, RNGTT / RFU, OGT / Fold change vs veh, OGT / RFU, BRD1 / Fold change vs veh, BRD1 / RFU, MARS / Fold change vs veh, MARS / RFU, ZNF655 / Fold change vs veh, ZNF655 / RFU, FAHD1 / Fold change vs veh, FAHD1 / RFU, BDP1 / Fold change vs veh, BDP1 / RFU, LRRCC1 / Fold change vs veh, LRRCC1 / RFU, ARID1A / Fold change vs veh, ARID1A / RFU, ZNF146 / Fold change vs veh, ZNF146 / RFU, ZNF330 / Fold change vs veh, ZNF330 / RFU, GPN3 / Fold change vs veh, GPN3 / RFU, C9orf123 / Fold change vs veh, C9orf123 / RFU, N4BP2L2 / Fold change vs veh, N4BP2L2 / RFU, ARFIP1 / Fold change vs veh, ARFIP1 / RFU, FAM179B / Fold change vs veh, FAM179B / RFU, BCL10 / Fold change vs veh, BCL10 / RFU, UHRF1BP1L / Fold change vs veh, UHRF1BP1L / RFU, BET1 / Fold change vs veh, BET1 / RFU, CNOT2 / Fold change vs veh, CNOT2 / RFU, ZNF268 / Fold change vs veh, ZNF268 / Fold change vs veh, ZNF507 / RFU, DGCR2 / Fold change vs veh, DGCR2 / RFU, WDSUB1 / Fold change vs veh, WDSUB1 / Fold change vs veh, HSP90B1 /// MIR3652 / RFU, ADSS / Fold change vs veh, ADSS / RFU, GK / Fold change vs veh, GK / RFU, ZNF148 / Fold change vs veh, ZNF148 / RFU, TAF9 / Fold change vs veh, TAF9 / RFU, SLC1A5 / Fold change vs veh, SLC1A5 / RFU, SLMO2 / Fold change vs veh, SLMO2 / RFU, ABCC4 / Fold change vs veh, ABCC4 / RFU, LOC101060439 /// RAP1B / Fold change vs veh, LOC101060439 /// RAP1B / RFU, RFX7 / Fold change vs veh, RFX7 / RFU, GTPBP10 / Fold change vs veh, GTPBP10 / RFU, CNEP1R1 / Fold change vs veh, CNEP1R1 / RFU, BIVM-ERCC5 /// ERCC5 / Fold change vs veh, BIVM-ERCC5 /// ERCC5 / RFU, ILF3 / Fold change vs veh, ILF3 / RFU 11762660_at / Fold change /veh 11762660_at / RFU VCAN (11757783_s_at) / Fold change /veh VCAN (11757783_s_at) / RFU DDX43 (11728927_at) / Fold change /veh DDX43 (11728927_at) / RFU KRT8 (11758188_x_at) / Fold change /veh KRT8 (11758188_x_at) / RFU NKD1 (11759106_at) / Fold change /veh NKD1 (11759106_at) / RFU SRD5A1 (11742802_a_at) / Fold change /veh SRD5A1 (11742802_a_at) / RFU TPSAB1 /// TPSB2 (11721975_s_at) / Fold change /veh TPSAB1 /// TPSB2 (11721975_s_at) / RFU GSTM3 (11746129_a_at) / Fold change /veh GSTM3 (11746129_a_at) / RFU IL23R (11737362_x_at) / Fold change /veh IL23R (11737362_x_at) / RFU TMEM51 (11727254_a_at) / Fold change /veh TMEM51 (11727254_a_at) / RFU PIWIL2 (11732686_x_at) / Fold change /veh PIWIL2 (11732686_x_at) / RFU ORM1 (11744905_x_at) / Fold change /veh ORM1 (11744905_x_at) / RFU CCDC152 (11743942_at) / Fold change /veh CCDC152 (11743942_at) / RFU ECM1 (11717891_a_at) / Fold change /veh ECM1 (11717891_a_at) / RFU IL23R (11748794_a_at) / Fold change /veh IL23R (11748794_a_at) / RFU TNFAIP8L3 (11732012_x_at) / Fold change /veh TNFAIP8L3 (11732012_x_at) / RFU MBOAT4 (11741988_at) / Fold change /veh MBOAT4 (11741988_at) / RFU 11764193_at / Fold change /veh 11764193_at / RFU TMEM53 (11763286_at) / Fold change /veh TMEM53 (11763286_at) / RFU MAGEB2 (11727129_at) / Fold change /veh MAGEB2 (11727129_at) / RFU TMEM200A (11744735_a_at) / Fold change /veh TMEM200A (11744735_a_at) / RFU CCDC152 (11751479_a_at) / Fold change /veh CCDC152 (11751479_a_at) / RFU FAM211A (11726209_a_at) / Fold change /veh FAM211A (11726209_a_at) / RFU RGS16 (11746705_a_at) / Fold change /veh RGS16 (11746705_a_at) / RFU VCAN (11755009_s_at) / Fold change /veh VCAN (11755009_s_at) / RFU RHOB (11743442_s_at) / Fold change /veh RHOB (11743442_s_at) / RFU RGS16 (11720943_a_at) / Fold change /veh RGS16 (11720943_a_at) / RFU RGS16 (11720944_at) / Fold change /veh RGS16 (11720944_at) / RFU, VPS4B / Fold change vs veh, VPS4B / RFU, CREB1 / Fold change vs veh, CREB1 / RFU, DNAJC13 / Fold change vs veh, DNAJC13 / RFU, GNAQ / Fold change vs veh, GNAQ / RFU, CDK5R1 / Fold change vs veh, CDK5R1 / RFU, ZRANB3 / Fold change vs veh, ZRANB3 / RFU, CUL4A / Fold change vs veh, CUL4A / RFU, CCNY / Fold change vs veh, CCNY / RFU, UFL1 / Fold change vs veh, UFL1 / RFU, COG3 / Fold change vs veh, COG3 / RFU, DIAPH2 / Fold change vs veh, DIAPH2 / RFU, SKA2 / Fold change vs veh, SKA2 / RFU, AFF3 / Fold change vs veh, AFF3 / RFU, LMF1 / Fold change vs veh, LMF1 / RFU, IPO11 / Fold change vs veh, IPO11 / RFU, DFFB / Fold change vs veh, DFFB / RFU, FOXP1 / Fold change vs veh, FOXP1 / RFU, CARD8 / Fold change vs veh, CARD8 / RFU, STRN3 / Fold change vs veh, STRN3 / RFU, ADK / Fold change vs veh, ADK / RFU, RASSF2 / Fold change vs veh, RASSF2 / RFU, WIPF1 / Fold change vs veh, WIPF1 / RFU, LARP1B / Fold change vs veh, LARP1B / RFU, RASA1 / Fold change vs veh, RASA1 / RFU, RB1 / Fold change vs veh, RB1 / RFU, PPFIA1 / Fold change vs veh, PPFIA1 / RFU, MAT2A / Fold change vs veh, MAT2A / RFU, CCT5 / Fold change vs veh, CCT5 / RFU, WDR92 / Fold change vs veh, WDR92 / RFU, CUX1 / Fold change vs veh, CUX1 / RFU, TTC7A / Fold change vs veh, TTC7A / RFU, TMEM135 / Fold change vs veh, TMEM135 / RFU, DEPTOR / Fold change vs veh, DEPTOR / RFU, CPM / Fold change vs veh, CPM / RFU, DNAJB6 / Fold change vs veh, DNAJB6 / RFU, CACNA2D3 / Fold change vs veh, CACNA2D3 / RFU, DTX4 / Fold change vs veh, DTX4 / RFU, TFCP2 / Fold change vs veh, TFCP2 / RFU, GMCL1 /// GMCL1P1 / Fold change vs veh, GMCL1 /// GMCL1P1 / RFU, AEBP2 / Fold change vs veh, AEBP2 / RFU, SNHG1 /// SNORD22 /// SNORD25 /// SNORD26 /// SNORD27 /// SNORD28 /// SNORD29 /// SNORD31 / Fold change vs veh, SNHG1 /// SNORD22 /// SNORD25 /// SNORD26 /// SNORD27 /// SNORD28 /// SNORD29 /// SNORD31 / Fold change (Aza/veh), C12orf56 (ProbeSet 11735607_a_at) / Fold change (ACY-1035/veh), C12orf56 (ProbeSet 11735607_a_at) / Fold change (Aza/veh), FGFR1OP (ProbeSet 11751329_s_at) / Fold change (ACY-1035/veh), FGFR1OP (ProbeSet 11751329_s_at) / Fold change (Aza/veh), VPS36 (ProbeSet 11739960_a_at) / Fold change (ACY-1035/veh), VPS36 (ProbeSet 11739960_a_at) / RFU SYPL1 (11715823_x_at) / Fold change /veh SYPL1 (11715823_x_at) / RFU IGFBP7 (11715501_s_at) / Fold change /veh IGFBP7 (11715501_s_at) / RFU REEP3 (11722064_at) / Fold change /veh REEP3 (11722064_at) / RFU IGLL1 (11728026_x_at) / Fold change /veh IGLL1 (11728026_x_at): dose or concentration left out as unconfirmed
Conditions: ProbeSet 11717702_a_at; LIST D

Nc1ncn([C@@H]2O[C@H](CO)[C@@H](O)[C@H]2O)c(=O)n1 [azacitidine]
Fold change vs veh, RB1: 0.73
